The source of these data is PMC6112376, “Comprehensive Analyses and Prioritization of Tox21 10K Chemicals Affecting Mitochondrial Function by in-Depth Mechanistic Studies” (Environmental Health Perspectives, 2018).

Data set [1] relates to HepG2 cells. The following applies: cited from earlier work.
The subject of another data set is rat primary hepatocytes. Kind of data set: MMP assay in rat primary hepatocytes. The conditions noted are these: for IC50: read-out: MMP assays IC50 (µM) Rat Hepatocytes.
For data set [2], the system named is HepG2 cells. The conditions noted are these: HepG2 cells, single number from one experiment; for IC50: read-out: MMP assays IC50 (µM) HepG2.
Where [3] appears, read: read-out: MMP assays IC50 (µM) qHTS-HepG2.
Where [4] appears, read: rat hepatocytes, mean ± SD of three experiments.
Setting [5] is: read-out: MMP assays IC50 (µM), qHTS-HepG2.

Read-outs that look alike come from different tables or passages of the source.

As usually defined, the IC50 is the concentration that inhibits the measured activity by half. Consider `CO[C@H]1C[C@H](O[C@H]2[C@H](C)O[C@@H](O[C@@H]3/C(C)=C/C[C@@H]4C[C@@H](C[C@]5(C=C[C@H](C)[C@@H](C6CCCCC6)O5)O4)OC(=O)[C@@H]4C=C(C)[C@@H](O)[C@H]5OC/C(=C\C=C\[C@@H]3C)[C@]54O)C[C@@H]2OC)O[C@@H](C)[C@@H]1O` [Doramectin], for which, in the data set on HepG2 cells [1], the “MMP assays efficacy (%) qHTS-HepG2” value is recorded as -80±13%. For the same molecule, in the data set on HepG2 cells [1] (setting [3]), the IC50 was 11.9 µM. Besides, in the data set with rat primary hepatocytes (setting [4]), the “MMP assays IC50 (µM) Rat Hepatocytes” value was “inactive” and the “MMP assays efficacy (%) Rat Hepatocytes” value was “inactive”. Also, in the data set on HepG2 cells [2], the “MMP assays efficacy (%) HepG2” value is on record as -117% and the IC50 amounted to 17.3 µM.
As to `CCCCCCCCCCCCOC(=O)c1ccc(O)cc1` [Dodecylparaben], the “MMP assays efficacy (%) qHTS-HepG2” value in the data set with HepG2 cells [1] is given as -107±9%. The IC50 in the data set with HepG2 cells [1] (setting [3]) was 4.19 ± 1.07 µM. Also, in the data set with rat primary hepatocytes (setting [4]), the “MMP assays IC50 (µM) Rat Hepatocytes” value was “inactive” and the “MMP assays efficacy (%) Rat Hepatocytes” value was “inactive”. Moreover, in the data set with HepG2 cells [2], the “MMP assays efficacy (%) HepG2” value is on record as -106% and the IC50 came to 7.94 µM.
Regarding `CCCCCCCC[n+]1ccn(C)c1.O=S(=O)([O-])C(F)(F)F` [1-Methyl-3-octylimidazolium trifluoromethanesulfonate], the “MMP assays efficacy (%) qHTS-HepG2” value in the data set with HepG2 cells [1] is recorded as -58±19%. Moreover, the IC50 in the data set with HepG2 cells [1] (setting [3]) is 8.38 ± 4.29 µM; in the data set on rat primary hepatocytes (setting [4]) it was 31.6 µM; in the data set with HepG2 cells [2], 15.8 µM. For the same molecule, the “MMP assays efficacy (%) Rat Hepatocytes” value in the data set on rat primary hepatocytes (setting [4]) is -82±36%. Further, the “MMP assays efficacy (%) HepG2” value with HepG2 cells [2] is -84%.
As to `O=C(c1ccc(O)c(O)c1)c1ccc(O)cc1O` [2,3',4,4'-Tetrahydroxybenzophenone], the “MMP assays efficacy (%) qHTS-HepG2” value with HepG2 cells [1] is listed as -89±13%. Moreover, the IC50 in the data set on HepG2 cells [1] (setting [3]) is 7.39 ± 7.14 µM; in the data set on rat primary hepatocytes (setting [4]), 40.4 ± 8.45 µM; in the data set with HepG2 cells [2], 8.91 µM. The “MMP assays efficacy (%) Rat Hepatocytes” value in the data set with rat primary hepatocytes (setting [4]) is -69±32%.
On to `CCCC(c1cc(C(C)(C)C)c(O)cc1C)c1cc(C(C)(C)C)c(O)cc1C`, for which the “MMP assays efficacy (%) qHTS-HepG2” value in the data set with HepG2 cells [1] is -106±11%. Also, the IC50 in the data set on HepG2 cells [1] (setting [5]) was 5.51 ± 1.58 µM; in the data set on rat primary hepatocytes (setting [4]) it was 21.1 ± 18.2 µM; in the data set with HepG2 cells [2], 7.08 µM. Further, in the data set with rat primary hepatocytes (setting [4]), the “MMP assays efficacy (%) Rat Hepatocytes” value is -61±15%. In the data set on HepG2 cells [2], the “MMP assays efficacy (%) HepG2” value was -100%.
Turning to `CC(C)c1ccccc1O` [Compound 2-Isopropylphenol], in the data set with HepG2 cells [1], the “MMP assays IC50 (µM) qHTS-HepG2” value was “inactive” and the “MMP assays efficacy (%) qHTS-HepG2” value was “inactive”. For the same molecule, in the data set on rat primary hepatocytes (setting [4]), the “MMP assays IC50 (µM) Rat Hepatocytes” value is “inactive” and the “MMP assays efficacy (%) Rat Hepatocytes” value is “inactive”. For the same molecule, in the data set with HepG2 cells [2], the “MMP assays IC50 (µM) HepG2” value was “inactive” and the “MMP assays efficacy (%) HepG2” value was “inactive”.
Regarding `CC(=O)Nc1ccc(NC(=S)NC(=O)c2ccc(C(C)(C)C)cc2)cc1` [Tenovin-1], in the data set on HepG2 cells [1], the “MMP assays efficacy (%) qHTS-HepG2” value is -115±19%. Moreover, the IC50 in the data set with HepG2 cells [1] (setting [5]) was 3.27 ± 2.74 µM; in the data set with rat primary hepatocytes (setting [4]), 18.4 ± 1.5 µM; with HepG2 cells [2] it was 3.88 µM. Moreover, the “MMP assays efficacy (%) Rat Hepatocytes” value in the data set on rat primary hepatocytes (setting [4]) is recorded as -41±18%. In addition, the “MMP assays efficacy (%) HepG2” value in the data set on HepG2 cells [2] is reported as -114%.
With Dodecylphenol, the IC50 with HepG2 cells [1] (setting [3]) was 3.1 ± 1.22 µM. Also, in the data set with rat primary hepatocytes (setting [4]), the “MMP assays efficacy (%) Rat Hepatocytes” value is -59±7% and the IC50 was 41.1 ± 13.2 µM. Also, in the data set with HepG2 cells [2], the “MMP assays efficacy (%) HepG2” value was -100% and the IC50 worked out at 3.16 µM.
For the molecule `Cc1cccc(C(C)(C)C)c1O` [Phenol, 2-(1,1-dimethylethyl)-6-methyl-], in the data set with HepG2 cells [1], the “MMP assays IC50 (µM) qHTS-HepG2” value was “inactive” and the “MMP assays efficacy (%) qHTS-HepG2” value is “inactive”. Besides, in the data set with rat primary hepatocytes (setting [4]), the “MMP assays IC50 (µM) Rat Hepatocytes” value is “inactive” and the “MMP assays efficacy (%) Rat Hepatocytes” value is “inactive”. In the data set on HepG2 cells [2], the “MMP assays IC50 (µM) HepG2” value is “inactive” and the “MMP assays efficacy (%) HepG2” value was “inactive”.
As for `CCCCCCCCCOC(=O)c1ccc(O)cc1` [Nonylparaben], in the data set on HepG2 cells [1], the “MMP assays efficacy (%) qHTS-HepG2” value is on record as -101±6%. The IC50 in the data set on HepG2 cells [1] (setting [5]) was 4.43 ± 0.3 µM. Further, in the data set with rat primary hepatocytes (setting [4]), the “MMP assays IC50 (µM) Rat Hepatocytes” value is “inactive” and the “MMP assays efficacy (%) Rat Hepatocytes” value is “inactive”. Besides, in the data set with HepG2 cells [2], the “MMP assays efficacy (%) HepG2” value is -110% and the concentration for half-maximal inhibition (IC50) was found to be 7.94 µM.
Turning to `CCC(=O)OCC(=O)[C@@]1(OC(=O)CC)[C@@H](C)C[C@H]2[C@@H]3CCC4=CC(=O)C=C[C@]4(C)[C@@]3(Cl)[C@@H](O)C[C@@]21C` [Beclazone], the “MMP assays efficacy (%) qHTS-HepG2” value in the data set with HepG2 cells [1] is listed as -103±9%. For the same molecule, in the data set on HepG2 cells [1] (setting [3]), the IC50 is 23.7 ± 2.74 µM. Moreover, in the data set on rat primary hepatocytes (setting [4]), the “MMP assays efficacy (%) Rat Hepatocytes” value is reported as -89±79% and the IC50 stood at 16.3 ± 20.6 µM. In the data set with HepG2 cells [2], the “MMP assays efficacy (%) HepG2” value is -61% and the IC50 is 21.8 µM.
For the molecule `O=C1c2ccccc2Cc2ccccc21` [Anthrone], the “MMP assays efficacy (%) qHTS-HepG2” value in the data set on HepG2 cells [1] was -70±4%. For the same molecule, the half-inhibitory concentration (IC50) in the data set on HepG2 cells [1] (setting [3]) was 21.8 ± 9.9 µM. For the same molecule, the IC50 with rat primary hepatocytes (Rattus norvegicus, Hepatocyte) was 42.4 ± 12 µM. For the same molecule, the “MMP assays efficacy (%) Rat Hepatocytes” value in the data set with rat primary hepatocytes (setting [4]) is given as -68±22%. In the data set with HepG2 cells [2], the “MMP assays IC50 (µM) HepG2” value is “inactive” and the “MMP assays efficacy (%) HepG2” value was “inactive”.
With `OC1CCCCCCCCCCC1` [Cyclododecanol], the “MMP assays efficacy (%) qHTS-HepG2” value in the data set on HepG2 cells [1] was -66±13%. For the same molecule, in the data set on HepG2 cells [1] (setting [3]), the IC50 is 48.8 ± 3.84 µM. For the same molecule, in the data set on rat primary hepatocytes (setting [4]), the “MMP assays IC50 (µM) Rat Hepatocytes” value is “inactive” and the “MMP assays efficacy (%) Rat Hepatocytes” value is “inactive”. In the data set on HepG2 cells [2], the “MMP assays IC50 (µM) HepG2” value is “inactive” and the “MMP assays efficacy (%) HepG2” value is “inactive”.
`Cc1cc(Nc2ccc(O)cc2)ccc1N`: in the data set with HepG2 cells [1], the “MMP assays efficacy (%) qHTS-HepG2” value is on record as -93±15%. In the data set on HepG2 cells [1] (setting [3]), the IC50 is 7.66 ± 0.88 µM. For the same molecule, in the data set on rat primary hepatocytes (setting [4]), the “MMP assays IC50 (µM) Rat Hepatocytes” value was “inactive” and the “MMP assays efficacy (%) Rat Hepatocytes” value is “inactive”. Further, in the data set on HepG2 cells [2], the “MMP assays efficacy (%) HepG2” value is -101% and the IC50 was found to be 14.1 µM.
With `CC(O)C(=O)O.CCOc1ccc2nc3cc(N)ccc3c(N)c2c1.O` [Ethacridine lactate hydrate], in the data set with HepG2 cells [1], the “MMP assays efficacy (%) qHTS-HepG2” value was -103±8%. In addition, the IC50 is 3.22 ± 0.55 µM in the data set on HepG2 cells [1] (setting [3]), 10.2 ± 5.58 µM with rat primary hepatocytes (setting [4]) and 5.48 µM with HepG2 cells [2]. For the same molecule, the “MMP assays efficacy (%) Rat Hepatocytes” value in the data set with rat primary hepatocytes (setting [4]) is given as -98±24%.
For `CC(C)(C)c1cc(Cc2cc(C(C)(C)C)c(O)c(C(C)(C)C)c2)cc(C(C)(C)C)c1O` [4,4'-Methylenebis(2,6-di-t-butylphenol)], in the data set on HepG2 cells [1], the “MMP assays IC50 (µM) qHTS-HepG2” value was “inactive” and the “MMP assays efficacy (%) qHTS-HepG2” value is “inactive”. Also, in the data set with rat primary hepatocytes (setting [4]), the “MMP assays IC50 (µM) Rat Hepatocytes” value was “inactive” and the “MMP assays efficacy (%) Rat Hepatocytes” value is “inactive”. In the data set on HepG2 cells [2], the “MMP assays IC50 (µM) HepG2” value is “inactive” and the “MMP assays efficacy (%) HepG2” value is “inactive”.
As for `O.O.O.O.[Na+].[O-]c1ccccc1-c1ccccc1` [Sodium 2-phenylphenate tetrahydrate], in the data set on HepG2 cells [1], the “MMP assays efficacy (%) qHTS-HepG2” value is given as -98±8%. In the data set on HepG2 cells [1] (setting [5]), the IC50 is 18.5 µM. In the data set on rat primary hepatocytes (setting [4]), the “MMP assays IC50 (µM) Rat Hepatocytes” value was “inactive” and the “MMP assays efficacy (%) Rat Hepatocytes” value was “inactive”. Moreover, in the data set on HepG2 cells [2], the “MMP assays efficacy (%) HepG2” value was -77% and the IC50 turned out to be 31.6 µM.
Regarding `CCc1cc(SCc2sc(-c3ccc(C(F)(F)F)cc3)nc2CN2CCN(c3ccc(OC)cc3)CC2)ccc1OCC(=O)O`, in the data set on HepG2 cells [1], the “MMP assays efficacy (%) qHTS-HepG2” value is on record as -128±5%. For the same molecule, the IC50 in the data set with HepG2 cells [1] (setting [3]) was 25.3 ± 5.81 µM. In the data set on rat primary hepatocytes (setting [4]), the “MMP assays efficacy (%) Rat Hepatocytes” value is -116±28% and the IC50 stood at 23.1 ± 15.6 µM. Also, in the data set with HepG2 cells [2], the “MMP assays efficacy (%) HepG2” value is -105% and the IC50 was 31.6 µM.
